Results reported in paper PMC8623179, “Design and Microwave Synthesis of New (5Z) 5-Arylidene-2-thioxo-1,3-thiazolinidin-4-one and (5Z) 2-Amino-5-arylidene-1,3-thiazol-4(5H)-one as New Inhibitors of Protein Kinase DYRK1A” (Pharmaceuticals, 2021).
Like-named read-outs stand apart in the source and are kept apart here.

Tests used:
DYRK1A [1] = conditions: reported, cited from earlier work
CDK5/p25 = target: T1, CDK5/p25 (Homo sapiens, UniProt Q00535); assay: CDK5/p25 kinase assay; format: biochemical; conditions: Table 4; 15 μM ATP
T1 construct: made in house
T1 sequence (Q00535 whole entry): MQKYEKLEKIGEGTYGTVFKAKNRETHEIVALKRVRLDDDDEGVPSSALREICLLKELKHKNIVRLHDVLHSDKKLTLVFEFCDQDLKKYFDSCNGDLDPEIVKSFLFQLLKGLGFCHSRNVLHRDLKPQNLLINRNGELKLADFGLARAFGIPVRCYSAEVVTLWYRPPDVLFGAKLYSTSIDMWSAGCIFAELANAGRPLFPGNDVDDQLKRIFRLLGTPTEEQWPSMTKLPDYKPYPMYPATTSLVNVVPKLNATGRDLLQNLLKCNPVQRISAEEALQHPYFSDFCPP
T1 sequence (Q15078 99-307 partner limits assumed): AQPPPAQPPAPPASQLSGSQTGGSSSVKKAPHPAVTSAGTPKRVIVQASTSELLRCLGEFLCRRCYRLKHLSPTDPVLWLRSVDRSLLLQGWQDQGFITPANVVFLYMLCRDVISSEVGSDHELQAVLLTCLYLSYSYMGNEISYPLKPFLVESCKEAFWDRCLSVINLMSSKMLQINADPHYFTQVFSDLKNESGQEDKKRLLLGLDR
Method: (§1) The twenty-two (5Z) 5-arylidene-2-thioxo-1,3-thiazolidin-4-ones 3a–v and the twenty-four (5Z) 2-amino-5-arylidene-1,3-thiazolidin-4(5H)-ones 5a–x were evaluated against four different and representative in vitro kinase assays DYRK1A (dual specificity tyrosine phosphorylation regulated kinase), CK1 δ/e (caseine kinase 1), CDK5/p25 (cyclin dependant kinase), and GSK3 α/β (glycogen synthase kinase 3) to evaluate their inhibition potency. […] All the compounds were initially tested at a 10 μM concentration.
(§2) After 30-min incubation at 30 °C, the reaction was stopped by harvesting, using a FilterMate harvester (Packard), onto P81 phospho-cellulose papers (GE Healthcare, Chicago, IL, USA) which were washed in 1% phosphoric acid. Scintillation fluid was added and the radioactivity measured in a Packard counter. Blank values were subtracted and activities calculated as pmoles of phosphate incorporated for the 30-min incubation. The activities were expressed in % of the maximal activity, i.e., in the absence of inhibitors. Controls were performed with appropriate dilutions of DMSO.
CDK5/p25 (human, recombinant) was prepared as previously described. […] ATP (3000 Ci/mmol; 10 mCi/mL) in a final volume of 30 μL. After 30-min incubation at 30 °C, 25 μL aliquots of supernatant were spotted onto 2.5 × 3 cm pieces of Whatman P81 phospho-cellulose paper, and, 20 s later, the filters were washed five times (for at least 5 min each time) in a solution of 10 mL phosphoric acid/litter of water. The wet filters were counted in the presence of 1 mL ACS (Amersham, UK) scintillation fluid.

GSK-3α/β = GSK-3α/β kinase assay; format: biochemical, porcine; conditions: Table 4; 15 μM ATP; read-out: IC50 GSK3α/β
Method: as §1, §2
GSK-3α/β (porcine brain, native) was assayed, as described for CDK5/p25 but in Buffer A and using a GSK-3 specific substrate (GS-1: […]pEDEEE) (pS stands for phosphorylated serine). GS-1 was synthesized by Millegen (Labege, France).

DYRK1A [2] = target: T2, DYRK1A (Rattus norvegicus, UniProt Q63470); assay: DYRK1A kinase assay; format: biochemical; conditions: Table 4; 15 μM ATP
T2 construct: GST; made in house; host or cells: Escherichia coli
Method: as §1
as §2, with “DMSO. […]” for “DMSO.”

Casein kinase 1 (CK1δ/ε) = assay: CK1δ/ε kinase assay; format: biochemical, porcine; conditions: Table 4; 15 μM ATP; read-out: IC50 CK1
Method: as §1, §2
Casein kinase 1 (CK1δ/ε) (porcine brain, native) was assayed with 0.67 µg of CKS peptide ([…]pSAYSITA), a CK1 specific substrate obtained from Millegen (Labege, France).

HCT116 = assay: Cell survival assay, HCT116; format: cell-based; conditions: Homo sapiens, HCT-116
Method: (§3) Skin diploid fibroblastic cells were provided by BIOPREDIC International Company (Rennes, France). […] Cells were grown according to ECACC recommendations. The toxicity test of the compounds on these cells was as follows: 2 × 10^3 cells for HCT-116 cells or 4 × 10^3 for the other cells were seeded in 96-multi-well plates in triplicate and left for 24 h for attachment, spreading and growing. Then, cells were exposed for 48 h to increasing concentrations of the compounds, ranging from […], in a final volume of 120 μL of culture medium. […] The IC50 were graphically determined.

Fibroblasts = assay: Cell survival assay, normal skin diploid fibroblasts; format: cell-based; conditions: Fibroblast; normal cells, 48 h exposure, nuclei count; read-out: Cell Lines IC50 Fibroblasts
Method: as §3

MDA-MB231 = assay: Cell survival assay, MDA-MB231; format: cell-based; conditions: Homo sapiens, MDA-MB-231; 48 h exposure, nuclei count; read-out: Cell Lines IC50 MDA-MB231
Method: as §3

Caco2 = assay: Cell survival assay, Caco2; format: cell-based; conditions: Homo sapiens, Caco-2
Method: as §3

Huh7 D12 = assay: Cell survival assay, Huh7 D12; format: cell-based; conditions: Huh-7D12; 48 h exposure, nuclei count; read-out: Cell Lines IC50 Huh7 D12
Method: as §3

PC3 = assay: Cell survival assay, PC3; format: cell-based; conditions: Homo sapiens, PC-3; 48 h exposure, nuclei count; read-out: Cell Lines IC50 PC3
Method: as §3

NCI-H727 = assay: Cell survival assay, NCI-H727; format: cell-based; conditions: Homo sapiens, 48 h exposure, nuclei count, read-out: Cell Lines IC50 NCI-H727
Method: as §3

[3] = 48 h exposure, nuclei count, read-out: Cell Lines IC50 HCT116
[4] = 48 h exposure, nuclei count, read-out: Cell Lines IC50 Caco2

| IC50 (CDK5/p25) | IC50 (GSK-3α/β) | melting point | IC50 (DYRK1A [2]) | IC50 (Casein kinase 1 (CK1δ/ε)) | Compound | IC50 (DYRK1A [1]) | also measured |
| --- | --- | --- | --- | --- | --- | --- | --- |
|  |  |  |  |  | c1csc(CNc2ncnc3ccc(-c4ccc5c(c4)OCO5)cc23)c1 [V] | 62 nM |  |
| > 10 µM | > 10 µM | > 260 °C | 700 nM | > 10 µM | O=C1NC(=S)S/C1=C\c1cc(Br)c2c(c1)OCO2 [Compound 3i, (5Z)-5-[(7-Bromo-1,3-benzodioxol-5-yl)methylene]-2-thioxo-1,3-thiazolidin-4-one] |  |  |
| > 10 µM |  | 246 to 250 °C | 15000 nM | > 10 µM | O=C1NC(=S)S/C1=C\c1cc2ccccc2o1 [Compound 3l, (5Z)-5-(1-Benzofuran-2-ylmethylene)-2-thioxo-1,3-thiazolidin-4-one] |  |  |
|  | 8 µM |  | 64 nM | ≥ 10 µM | COc1cc(/C=C2\SC(=S)NC2=O)ccc1O [Compound 3c, (5Z)-5-(4-Hydroxy-3-methoxybenzylidene)-2-thioxo-1,3-thiazolidin-4-one] |  | IC50 (HCT116; [3]): 12 µM; IC50 (Fibroblasts): > 25 µM; IC50 (MDA-MB231): > 25 µM; IC50 (Caco2; [4]): > 25 µM; IC50 (Huh7 D12): > 25 µM; IC50 (PC3): > 25 µM; IC50 (NCI-H727): > 25 µM |
| > 10 µM | ≥ 10 µM | 250 to 252 °C | 90 nM | > 10 µM | O=C1NC(=S)S/C1=C\c1ccc2c(c1)CCO2 [Compound 3g, (5Z)-5-(2,3-Dihydro-benzofuran-5-ylmethylene)-2-thioxo-1,3-thiazolidin-4-one] |  | IC50 (HCT116; [3]): > 25 µM; IC50 (HCT116; read-out: IC50 HCT 116): 6 µM; IC50 (Fibroblasts): > 25 µM; IC50 (MDA-MB231): > 25 µM; IC50 (Caco2; [4]): > 25 µM; IC50 (Caco2; read-out: IC50 Caco2): 8 µM; IC50 (Huh7 D12): > 25 µM; IC50 (PC3): > 25 µM; IC50 (NCI-H727): > 25 µM |
| > 10 µM | > 10 µM | 210 to 212 °C | > 10000 nM | > 10 µM | O=C1NC(=S)S/C1=C\c1ccc(O)c(O)c1 [Compound 3j, (5Z)-5-(3,4-Dihydroxybenzylidene)-2-thioxo-1,3-thiazolidin-4-one] |  |  |
|  |  |  |  |  | O=C1NC(Nc2ccccc2)=N/C1=C\c1ccc2c(c1)OCO2 [Leucettine L41] |  | IC50 (DYRK1A [1]; Figure 1): 40 nM |
| > 10 µM | > 10 µM | 222 to 224 °C | 1400 nM | > 10 µM | COc1ccc(/C=C2\SC(=S)NC2=O)cc1O [Compound 3b, (5Z)-5-(3-Hydroxy-4-methoxybenzylidene)-2-thioxo-1,3-thiazolidin-4-one] |  | IC50 (HCT116; [3]): > 25 µM; IC50 (Fibroblasts): > 25 µM; IC50 (MDA-MB231): > 25 µM; IC50 (Caco2; [4]): > 25 µM; IC50 (Huh7 D12): > 25 µM; IC50 (PC3): > 25 µM; IC50 (NCI-H727): > 25 µM |
|  |  |  |  |  | O=c1oc2ccc(O)cc2c2c1[nH]c1ccc(O)cc12 [XI] | 67 nM |  |
|  |  |  |  |  | CN(Cc1cccs1)c1ncnc2ccc(-c3ccc4c(c3)OCO4)cc12 [VI] | 14 nM |  |
|  |  |  |  |  | Nc1ncc(I)c(-c2c[nH]c3ccccc23)n1 [Meridianine 74] | 66 nM |  |
|  |  |  |  |  | Nc1nccc(-c2c[nH]c3nccc(O)c23)n1 [Merioline 2] | 29 nM |  |
